{
  "source": "PubChem BioAssay AID651554",
  "about": "(The Scripps Research Institute Molecular Screening Center, 2012)",
  "note": "Active and inactive are the calls of the source.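 Rule for the calls: active = either panel giving IC50 at or below 10 µM; inactive = both panels giving IC50 over 10 µM.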",
  "data": [
    {"biological_target": "Melanocortin receptor 4 (Homo sapiens) (UniProt P32245)", "sequence (P32245 whole entry, looked up)": "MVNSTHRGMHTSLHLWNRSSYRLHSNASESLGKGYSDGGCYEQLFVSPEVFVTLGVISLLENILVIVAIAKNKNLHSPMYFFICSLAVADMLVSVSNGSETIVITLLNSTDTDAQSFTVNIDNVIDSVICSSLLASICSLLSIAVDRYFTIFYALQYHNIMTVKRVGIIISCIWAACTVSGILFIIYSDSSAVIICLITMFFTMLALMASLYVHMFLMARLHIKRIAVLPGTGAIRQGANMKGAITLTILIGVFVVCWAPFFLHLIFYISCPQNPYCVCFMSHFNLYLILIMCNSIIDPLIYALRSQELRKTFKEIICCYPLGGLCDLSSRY", "test": "inhibition of MC4R-driven cAMP production – cell-based, FRET, biased ligands, late-stage follow-up (AID 651554)", "details": "U2OS MC4R, Melanotan II cAMP TR-FRET antagonist; run 1", "values": [
      {"smiles": "CC(=O)c1ccc(Nc2nc3ccc(C(=O)N(CCC(C)C)CCC(C)C)cc3n2CCCN2CCCCC2)cc1", "IC50": "0.0174 µM"},
      {"smiles": "CNC(=O)c1cc(Oc2ccc(NC(=O)Nc3ccc(Cl)c(C(F)(F)F)c3)cc2)ccn1", "IC50": "inactive"},
      {"smiles": "Cc1ccccc1CN1Cc2cnnn2-c2ccccc2C1C#N", "note": "(stereo not given)", "IC50": "> 50 µM (inactive)"},
      {"smiles": "CCC1CCCCN1S(=O)(=O)c1ccc(NC(=O)c2ccccc2)cc1", "note": "(stereo not given)", "IC50": "> 50 µM (inactive)"},
      {"smiles": "CCC1CCCCN1S(=O)(=O)c1ccc(NC(=O)c2cccc(S(C)(=O)=O)c2)cc1", "note": "(stereo not given)", "IC50": "> 50 µM (inactive)"},
      {"smiles": "C#CC(=O)N(c1ccc(OC)c(OC)c1)C(C(=O)NC1CCCC1)c1cccs1", "note": "(stereo not given)", "IC50": "> 50 µM (inactive)"},
      {"smiles": "CNC(=O)c1cc(Oc2ccc(NC(=O)CNc3ccc(Cl)c(C(F)(F)F)c3)cc2)ccn1", "IC50": "> 50 µM (inactive)"},
      {"smiles": "COc1ccccc1C1(CCNC(C)c2cccs2)CCOC(C(C)C)C1", "note": "(stereo not given)", "IC50": "8.15 µM"},
      {"smiles": "CNC(=O)c1cc(Oc2ccc(NCC(=O)Nc3ccc(Cl)c(C(F)(F)F)c3)cc2)ccn1", "IC50": "> 50 µM (inactive)"},
      {"smiles": "COc1ccc(N(C(C)=O)C(C(=O)NC2CCCC2)c2cccs2)cc1OC", "note": "(stereo not given)", "IC50": "> 50 µM (inactive)"},
      {"smiles": "CCC1CCCCN1S(=O)(=O)c1ccc(NC(=O)c2ccnc(SC)n2)cc1", "note": "(stereo not given)", "IC50": "> 50 µM (inactive)"},
      {"smiles": "CC1CCCCN1S(=O)(=O)c1ccc(NC(=O)c2nc(S(C)(=O)=O)ncc2Cl)cc1", "note": "(stereo not given)", "IC50": "inactive"}
    ]},
    {"biological_target": "Melanocortin receptor 4 (Homo sapiens) (UniProt P32245)", "test": "inhibition of MC4R-driven cAMP production – cell-based, FRET, biased ligands, late-stage follow-up (AID 651554)", "details": "U2OS MC4R, Melanotan II cAMP TR-FRET antagonist; run 2", "values": [
      {"smiles": "CC(=O)N(c1ccccc1)C(C(=O)NC1CCCC1)c1cccs1", "note": "(stereo not given)", "IC50": "> 50 µM (inactive)"},
      {"smiles": "Cc1ccc(CN2Cc3ccccc3-n3nncc3C2)c(C)c1", "IC50": "> 50 µM (inactive)"},
      {"smiles": "CC(=O)c1ccc(Nc2nc3ccc(C(=O)N(CCC(C)C)CCC(C)C)cc3n2CCCN2CCCCC2)cc1", "IC50": "0.0365 µM"},
      {"smiles": "Cc1ccccc1CN1Cc2ccccc2-n2nncc2C1", "IC50": "> 50 µM (inactive)"},
      {"smiles": "COc1ccc(N(C(=O)c2ccco2)C(C(=O)NC2CCCC2)c2cccs2)cc1OC", "note": "(stereo not given)", "IC50": "> 50 µM (inactive)"},
      {"smiles": "COc1ccc(N(C(=O)Cc2cccs2)C(C(=O)NC2CCCC2)c2cccs2)cc1OC", "note": "(stereo not given)", "IC50": "> 50 µM (inactive)"},
      {"smiles": "CCC1CCCCN1S(=O)(=O)c1ccc(NC(=O)c2nc(S(C)(=O)=O)ncc2Br)cc1", "note": "(stereo not given)", "IC50": "> 50 µM (inactive)"},
      {"smiles": "CCC1CCCCN1S(=O)(=O)c1ccc(NC(=O)c2ccccc2)cc1", "note": "(stereo not given)", "IC50": "> 50 µM (inactive)"},
      {"smiles": "CCC1CCCCN1S(=O)(=O)c1ccc(NC(=O)c2ccnc(S(C)=O)n2)cc1", "note": "(stereo not given)", "IC50": "> 50 µM (inactive)"},
      {"smiles": "CCC1CCCCN1S(=O)(=O)c1ccc(NC(=O)c2ccnc(S(C)(=O)=O)n2)cc1", "note": "(stereo not given)", "IC50": "inactive"},
      {"smiles": "N#CC1c2ccccc2-n2nncc2CN1C(=O)c1ccccc1", "note": "(stereo not given)", "IC50": "> 50 µM (inactive)"},
      {"smiles": "Cc1ccc(CN2Cc3cnnn3-c3ccccc3C2C#N)c(C)c1", "note": "(stereo not given)", "IC50": "> 50 µM (inactive)"},
      {"smiles": "O=C(NC1CCCC1)C(Nc1ccccc1)c1cccs1", "note": "(stereo not given)", "IC50": "> 50 µM (inactive)"}
    ]}
  ]
}
